Reference: paper PMC8199124, “Design, Synthesis and In-Vitro Biological Evaluation of Antofine and Tylophorine Prodrugs as Hypoxia-Targeted Anticancer Agents” (Molecules, 2021)
Converted amounts (≈) assume the structure as drawn. Read-outs that look alike come from different tables or passages of the source.

How the values were obtained:
[1] = LogD determination; type: physicochemical; settings: mean ± SE
Protocol: (§1) Water solubility, logD, and PAMPA-BBB were evaluated using the protocols we previously described.

[2] = tested on: CHO-K1; assay: Cytotoxicity (MTT) under normoxia, CHO-K1; type: cell-based, Chinese hamster; settings: Cricetulus griseus
Protocol: (§2) The cytotoxicity of the compounds 5a–c and their parent alkaloids was evaluated by the 3-[4,5-dimethylthiazole-2-yl]-2,5-diphenyltetrazolium bromide (MTT) assay against 5 cancerous and 2 non-cancerous cell lines (Table 4).
(§3) The eight cell lines HEK293 (Human embryonic kidney 293), CHO-K1 (Chinese hamster ovary K1), MCF-7 cells (Human breast adenocarcinoma), HCT116 (human colorectal carcinoma), RKO (Human rectal carcinoma), SW480 (human colorectal carcinoma), H460 (Human lung cancer), and MRC5 (Normal human foetal lung fibroblast), were obtained from the ATCC. The cell lines were routinely grown in alpha minimum essential medium (α-MEM) containing 5% foetal calf serum (FCS). The appropriate number of cells (HCT116 = 400 cells/well, H460 cells = 600 cells/well) were seeded into 96-well plates under normoxic or hypoxic conditions. Cells were plated in 100 µL α-MEM containing 10% FCS, 10mM D-Glucose and 0.2mM 2′-deoxycytidine. After incubation for 2 h, the compounds were added at the appropriate concentration and incubated for further 4 h. The cells were then washed three times with drug-free α-MEM (containing 5% FCS and pen/strep). The plates were then incubated for 5 days under normoxic conditions. The cells were stained with sulphorhodamine B to measure total cells. The IC50 was determined by interpolation as the compound concentration reducing staining to 50% of controls on the same plate.

[3] = tested on: RKO; assay: Cytotoxicity (MTT) under normoxia, RKO; type: cell-based; settings: Homo sapiens, read-out: IC50 RKO
Protocol: as §2, §3

[4] = tested on: HEK293; assay: Cytotoxicity (MTT) under normoxia, HEK293; type: cell-based; settings: Homo sapiens
Protocol: as §2, §3

[5] = Plasma protein binding (PPB); type: in vitro ADME; settings: mean ± SE, read-out: PPB (% of Bound Compound) (converted)
Protocol: The physicochemical properties of the new compounds were evaluated (Table 1).

[6] = tested on: HCT116; assay: Cytotoxicity under normoxia and hypoxia (anaerobic chamber, sulphorhodamine B), HCT116; type: cell-based, human; settings: for IC50: Homo sapiens, HCT-116, 4 h exposure, 5 days growth
Protocol: (§4) We also checked if the designed prodrugs were able to liberate the active alkaloids in hypoxic tumors by testing them under hypoxic conditions using an anaerobic chamber. The three prodrugs 5a–c and their parent alkaloids as well as the reference compounds PR-104A, the parent alcohol form of the phosphate pre-prodrug PR-104, and evofosfamide were tested using the HCT116 and H460 cell lines under both normoxic and hypoxic conditions (Table 5). The prodrugs were much less cytotoxic than the parent drugs, in agreement with our observations using the other cell lines described above (Figure 6).
(§5) The extent to which a prodrug is deactivated relative to its parent drug under normoxic conditions is defined as the Deactivation Ratio (DR). The DR can be simply calculated as DR = IC50 (prodrug)/IC50 (parent drug).
(§6) The efficacy of prodrug activation under hypoxic conditions can be expressed by the Hypoxia Cytotoxicity Ratio (HCR), which can be calculated for a given prodrug as: HCR = normoxic IC50/hypoxic IC50.
as §3

[7] = tested on: HCT116; assay: Cytotoxicity (MTT) under normoxia, HCT116; type: cell-based; settings: Homo sapiens
Protocol: as §2, §3

[8] = Solubility in PBS (pH 7.4); type: physicochemical; settings: aqueous buffer, mean ± SE
Protocol: as §1

[9] = Human plasma stability test; type: in vitro ADME; settings: 37 °C, up to 24 h, read-out: t1/2 (Human Plasma) (converted)
Protocol: (§7) Incubations were carried out in 6 aliquots of 70 μL each in duplicates. […] The reactions were stopped by adding 350 μL of acetonitrile with subsequent plasma proteins sedimentation by centrifuging at 5500 rpm for 5 min. Supernatants were analyzed by LC-MS using Shimadzu VP HPLC system including vacuum degasser, gradient pumps, reverse phase column, column oven and autosampler. The HPLC system was coupled with tandem mass spectrometer API 3000 (PE Sciex, Foster City, CA, USA). Both the positive and negative ion modes of the TurboIonSpray ion source were used. The acquisition and analysis of the data were performed using Analyst 1.5.2 software (PE Sciex, API 3000 mass spectrometer, Foster City, CA, USA). The percentage of the test compounds remaining after incubation in plasma and their half-lives (T1/2) were calculated.

[10] = in vitro; settings: male, Balb/c, pH 7.4
Protocol: Mouse hepatic microsomes were isolated from pooled, perfused livers of Balb/c male mice according to the standard protocol. […] Microsomal incubations were carried out in 96-well plates in 5 aliquots of 40 μL each. […] Control incubations were performed by replacing the NADPH-cofactor system with PBS. The additional control incubations in PBS (with 3.3 mM MgCl2) without added microsomes were carried out in this study. […] The incubations were performed in duplicates. Five time points over 40 min had been analyzed. The reactions were stopped by adding 12 volumes of 90% acetonitrile-water to incubation aliquots, followed by protein sedimentation by centrifuging at 5500 rpm for 3 min. The supernatants were analyzed using LC-MS as mentioned above.

[11] = tested on: MRC5; assay: Cytotoxicity (MTT) under normoxia, MRC5; type: cell-based; settings: Homo sapiens
Protocol: as §2, §3

[12] = tested on: H460; assay: Cytotoxicity under normoxia and hypoxia (anaerobic chamber, sulphorhodamine B), H460; type: cell-based, human; settings: for IC50: Homo sapiens, NCI-H460, 4 h exposure, 5 days growth
Protocol: as §4, §5, §6, §3

[13] = tested on: SW480; assay: Cytotoxicity (MTT) under normoxia, SW480; type: cell-based; settings: Homo sapiens
Protocol: as §2, §3

[14] = Mouse plasma stability test; type: in vitro ADME; settings: 37 °C, up to 24 h, read-out: t1/2 (Mouse Plasma) (converted)
Protocol: as §7

[15] = BBB-Parallel Artificial Membrane Permeability Assay (BBB-PAMPA); type: in vitro ADME; settings: mean ± SE
Protocol: The physicochemical properties of the new compounds were evaluated (Table 1). […] Consequently, these derivatives lost their BBB penetrability, as predicted by the BBB-Parallel Artificial Membrane Permeability Assay (BBB-PAMPA), whereas their parent alkaloids had free passage through the BBB.
as §1

[16] = tested on: MCF7; assay: Cytotoxicity (MTT) under normoxia, MCF7; type: cell-based; settings: Homo sapiens
Protocol: as §2, §3

[17] = HCT116, hypoxia, read-out: IC50 (Hypoxia)
[18] = HCT116, normoxia, read-out: IC50 (Normoxia)
[19] = H460, hypoxia, read-out: IC50 (Hypoxia)
[20] = H460, normoxia, read-out: IC50 (Normoxia)

Structure (SMILES)	logD [1]	IC50 ([2]; CHO-K1, read-out: IC50 CHO-K1)	IC50 [3]	IC50 ([4]; HEK293, read-out: IC50 HEK293)	fraction unbound [5]	HCR (Hypoxia Cytotoxicity Ratio) [6]	IC50 [6, 17]	IC50 [6, 18]	IC50 ([7]; HCT-116, read-out: IC50 HCT116)	solubility [8]	Kel (elimination rate constant) ([10]; mouse, 2 μM)	half-life at 2 μM ([10]; mouse, microsomes)	IC50 ([11]; MRC5, read-out: IC50 MRC5)	HCR (Hypoxia Cytotoxicity Ratio) [12]	IC50 [12, 19]	IC50 [12, 20]	IC50 ([13]; SW480, read-out: IC50 SW480)	Permeability (Papp) [15]	IC50 ([16]; MCF7, read-out: IC50 MCF7)	other results
COC(=O)Nc1nc2ccc(C(=O)c3ccccc3)cc2[nH]1 [Mebendazole]	3.26 ± 0.01	–	–	–	–	–	–	–	–	–	–	–	–	–	–	–	–	–	–	–
COc1ccc2c3c(c4cc(OC)c(OC)cc4c2c1)C[C@H]1CCC[N+]1(Cc1c([N+](=O)[O-])ncn1C)C3.[Br-] (stereo partly drawn) [Compound 5a, (13aR)-2,3,6-trimethoxy-10-((1-methyl-4-nitro-1H-imidazol-5-yl)methyl)-10,11,12,13,13a,14-hexahydro-9H-dibenzo[f,h]pyrrolo[1,2-b]isoquinolin-10-ium bromide]	[…]	[…]	2030 ± 267 nM	5080 ± 519 nM	0.13	8.8	425 ± 51 nM	[…]	1040 ± 21 nM	154 µM	[…]	[…]	327 ± 147 nM	26	618 ± 44 nM	15800 nM	1350 ± 0.126 nM	[…]	1530 ± 144 nM	DR (Deactivation Ratio) ([6]; HCT116, normoxia, DR = IC50 (prodrug)/IC50 (parent drug)): […]; half-life at 1 μM [9]: 145 ± 4.7 h; metabolized into the parent drug ([10]; mouse, microsomes, 2 μM): […]; DR (Deactivation Ratio) ([12]; H460, normoxia, DR = IC50 (prodrug)/IC50 (parent drug)): […]; half-life at 1 μM [14]: […]
COc1cc2c3c(c4cc(OC)c(OC)cc4c2cc1OC)CN1CCC[C@H]1C3 [(S)-Tylophorine]	3.14 ± 0.02	35 ± 42 nM	202 ± 3 nM	16 ± 26 nM	0.061	–	50.1 ± 18 nM	35.1 ± 15 nM	85 ± 6 nM	2 µM (≈ 0.787 µg/mL)	–	–	27 ± 2 nM	–	102 ± 32 nM	108 ± 28 nM	69 ± 20 nM	−5.4 ± 0.17 Log [10^−6 cm/s]	62 ± 13 nM	HCR (Hypoxia Cytotoxicity Ratio) ([6]; HCT116, HCR = normoxic IC50/hypoxic IC50): 0.5; half-life at 2 μM ([10]; microsomes): 2.12 ± 0.05 h; HCR (Hypoxia Cytotoxicity Ratio) ([12]; H460, HCR = normoxic IC50/hypoxic IC50): 1.1
COc1ccc2c3c(c4cc(OC)c(OC)cc4c2c1)C[C@H]1CCCN1C3 [(R)-Antofine, (R)-antofine]	3.68 ± 0.03	–	–	–	0.019	0.4	16.7 ± 9 nM	23.9 ± 7 nM	–	27 ± 2 µM (≈ 9.81 µg/mL)	0.002 ± 0 min⁻¹	1.12 ± 0.035 h	–	0.6	25.4 ± 9 nM	29.2 ± 12 nM	–	−5.6 ± 0.58 Log [10^−6 cm/s]	–	IC50 ([2]; CHO-K1, normoxia, read-out: IC50 CHO-K1): 33 ± 50 nM; IC50 ([3]; normoxia): 6 ± 1 nM; IC50 ([4]; HEK293, normoxia, read-out: IC50 HEK293): 30 ± 43 nM; IC50 ([7]; HCT-116, normoxia, read-out: IC50 HCT116): 2 nM; IC50 ([11]; MRC5, normoxia, read-out: IC50 MRC5): 6 ± 2 nM; IC50 ([13]; SW480, normoxia, read-out: IC50 SW480): 9 ± 2 nM; IC50 ([16]; MCF7, normoxia, read-out: IC50 MCF7): 2 nM
Cc1nccn1CC1CCc2c(c3ccccc3n2C)C1=O (stereo not shown) [Ondansetron]	–	–	–	–	–	–	–	–	–	96 ± 3 µM (≈ 28.2 µg/mL)	–	–	–	–	–	–	–	–	–	–
CNC(=C[N+](=O)[O-])NCCSCc1ccc(CN(C)C)o1 [Ranitidine]	–	–	–	–	–	–	–	–	–	–	–	–	–	–	–	–	–	<−7 Log [10^−6 cm/s]	–	–
